Results reported in patent publication US6323203A, “Composition and method for treating diabetes” (Beyer; Camille F., priority 2000, dated 2001).

Key:
[1] = Serum concentration of PZG or PZA after single oral dose in the crossover study; format: in vivo; conditions: human, 900 mg, 8 normal subjects
Method: (§1) Eight male nonsmoking subjects aged 24-32 participated. They were normal by history, physical exam and routine laboratory analysis of blood and urine.
(§2) This was a single-blind, three-phase crossover study beginning after a 10-hour fast at 8 a.m., designated time 0 (control), when the first venipuncture occurred. In phase I, three capsules of lactose were given orally, followed by venipunctures 2 and 4 h later. In phase II, 1 week later, after a control blood specimen drawn at 8 a.m., PZG (900 mg) was given orally and blood specimens taken 2 and 4 h thereafter. In phase III, 3 weeks later, after a control blood specimen drawn at 8 a.m., PZA (300 mg) was given orally and blood specimens taken 2 and 4 h later.
(§3) Each phase consisted of taking three capsules, each containing 300 mg. In phase I, all three capsules were of lactose; in phase II, all three were PZG; and in phase III, two capsules were lactose and one PZA. All capsules appeared indistinguishable and were given to each subject who swallowed them with water in the presence of an investigator.
(§4) Once obtained, blood specimens were immediately spun. Refrigerated serum or plasma was analyzed within 24 h for glucose, insulin, electrolytes, blood urea nitrogen, creatinine, liver function tests, triglycerides, total cholesterol, high-density lipoprotein (HDL) cholesterol, low-density lipoprotein (LDL) cholesterol, very-low-density lipoprotein (VLDL) cholesterol, free fatty acids, and fibrinogen.

[2] = tested on: cutaneous vasomotor reaction of blush area; assay: Cutaneous vasomotor response (and tolerability) after a single oral dose in 8 male volunteers; format: in vivo, human; conditions: single oral dose, 900 mg PZG
Method: as §1, §2
Comparisons of mean serum or plasma concentrations ±SD during placebo, PZG and PZA phases are presented in Table 1 for glucose, insulin, C-peptide, free fatty acids and norepinephrine. Comparisons of mean serum or plasma concentrations ±SD during these three phases are presented in Table 2 for triglycerides, VLDL, LDL, HDL, total cholesterol, fibrinogen and serum PZG and PZA concentrations. Note the close agreement of serum PZG and PZA concentrations at 2 h and also at 4 h after their administration. Table 3 compares mean serum or plasma concentrations ±SD of renin, angiotensin I, adlosterone, potassium, urea and uric acid during the three phases of the study. […] In an earlier pilot experiment to determine serum PZA concentrations following different PZA doses, a first subject ([…]) after a single oral dose of 300 mg PZA developed unexpectedly a typical cutaneous vasomotor reaction of their blush area which included flushed, warm skin of face, neck and shoulders with a mild rash for about 90 min. […] They described the reaction variously as warm redness or flushed head and neck, rash and itching (Table 4). These reactions, which were graded from 6 (most severe) to 0 (not observed), lasted from 30 min in 3 subjects to 4 h in 1 subject. […] No significant correlation occurred between score of reaction (effect+duration) and PZA peak blood concentration among the subjects (r=0.281) (Table 4).
^1 Score = warm + redness (flush) + rash + itching + duration. Duration
as 0.5 h, 1, 2, 4 h (reaction and duration as noted).

[3] = Single-blind, three-phase crossover study of single oral doses: blood analyses of metabolic, hormonal and electrolyte parameters in 8 normal male subjects; format: in vivo, human; conditions: for Free fatty acids, mean / Angiotensin I, mean / Renin, mean / C-peptide, mean / Potassium, mean / Uric acid, mean / Aldosterone, mean / Insulin, mean / Urea, mean / VLDL Cholesterol, mean / Norepinephrine, mean / HDL Cholesterol, mean / Glucose, mean / Triglycerides, mean / LDL Cholesterol, mean / Total cholesterol, mean / Fibrinogen, mean: 8 normal subjects; for Free fatty acids, mean: 0 h: PZG 0.47, PZA 0.51; for Angiotensin I, mean: 0 h: PZG 0.84, PZA 0.66; for Renin, mean: 0 h: PZG 1.0, PZA 1.5; for C-peptide, mean: 0 h: PZG 1.1, PZA 1.2; for Potassium, mean: 0 h: PZG 4.2, PZA 4.0; for Uric acid, mean: 0 h: PZG 6.0, PZA 5.6; for Aldosterone, mean: 0 h: PZG 8.6, PZA 13.6; for Insulin, mean: 0 h: PZG 8.8, PZA 5.4; for Urea, mean: 0 h: PZG 17, PZA 17; for VLDL Cholesterol, mean: 0 h: PZG 20, PZA 17; for Norepinephrine, mean: 0 h: PZG 37, PZA 75; for HDL Cholesterol, mean: 0 h: PZG 41, PZA 46; for Glucose, mean: 0 h: PZG 87, PZA 84; for Triglycerides, mean: 0 h: PZG 101, PZA 86; for LDL Cholesterol, mean: 0 h: PZG 107, PZA 104; for Total cholesterol, mean: 0 h: PZG 168, PZA 167; for Fibrinogen, mean: 0 h: PZG 266, PZA 293
Method: A three-phase study, where single oral doses of placebo, followed in one week by 900 mg of pyrazinoylguanidine (PZG), followed in three weeks by 300 mg of pyrazinoic acid (PZA), involving normal male subjects, was carried out to compare and contrast metabolic effects of single doses of PZG and PZA. A purpose of the study was to determine whether the metalbolic effects observed after 3 and also 21 days of PZG administration in patients with renal disease or with diabetes also occurred after a single oral dose. […]
as §1, §2, §3, §4
Repeated measures of analysis of variance were used to compare each subject's placebo, PZG and PZA phase. Two-tailed Student t-tests were performed between groups. All results are reported as means ±SD. Statistical significance was considered when p<0.05. The results are illustrated in Tables 1-4.

[4] = 4 h after single oral dose (PZG 900 mg, PZA 300 mg)
[5] = 2 h after single oral dose (PZG 900 mg, PZA 300 mg)

SMILES: NC(N)=NC(=O)c1cnccn1 [PZG, pyrazinoylguanidine]
- concentration at 2 h ([1]; 2 h after single oral dose (PZG 900 mg, PZA 300 mg), read-out: Serum concentration of PZG or PZA, mean): 5100 ng/mL
- concentration at 4 h [1, 4]: 3000 ng/mL
- adverse reactions [2]: no adverse reaction
- tolerability [2]: well tolerated
- Free fatty acids, mean [3, 5]: 0.20 meq/l
- Angiotensin I, mean [3, 5]: 0.86 ng/ml per h
- Renin, mean [3, 5]: 1.2 ng/ml per h
- C-peptide, mean [3, 5]: 0.9 ng/mL
- Potassium, mean [3, 5]: 4.5 meg/l
- Uric acid, mean [3, 5]: 6.0 mg/dL
- Aldosterone, mean [3, 5]: 10.0 ng/dL
- Insulin, mean [3, 5]: 6.2 μlU/ml
- Urea, mean [3, 5]: 17 mg/dL
- VLDL Cholesterol, mean [3, 5]: 18 mg/dL
- Norepinephrine, mean [3, 5]: 53 pg/mL
- HDL Cholesterol, mean [3, 5]: 42 mg/dL
- Glucose, mean [3, 5]: 84 mg/dL
- Triglycerides, mean [3, 5]: 91 mg/dL
- LDL Cholesterol, mean [3, 5]: 107 mg/dL
- Total cholesterol, mean [3, 5]: 167 mg/dL
- Fibrinogen, mean [3, 5]: 273 mg/dL
- Free fatty acids, mean [3, 4]: 0.19 meq/l
- Angiotensin I, mean [3, 4]: 1.0 ng/ml per h
- Renin, mean [3, 4]: 1.8 ng/ml per h
- C-peptide, mean [3, 4]: 0.6 ng/mL
- Potassium, mean [3, 4]: 4.3 meg/l
- Uric acid, mean [3, 4]: 6.2 mg/dL
- Aldosterone, mean [3, 4]: 9.5 ng/dL
- Insulin, mean [3, 4]: 3.4 μlU/ml
- Urea, mean [3, 4]: 16 mg/dL
- VLDL Cholesterol, mean [3, 4]: 16 mg/dL
- Norepinephrine, mean [3, 4]: 113 pg/mL
- HDL Cholesterol, mean [3, 4]: 42 mg/dL
- Glucose, mean [3, 4]: 80 mg/dL
- Triglycerides, mean [3, 4]: 79 mg/dL
- LDL Cholesterol, mean [3, 4]: 113 mg/dL
- Total cholesterol, mean [3, 4]: 171 mg/dL
- Fibrinogen, mean [3, 4]: 273 mg/dL
- effect on potassium blood concentrations ([3]; single oral dose, within 4 h): not changed
